These results are taken from ChEMBL document CHEMBL1130089 (J Med Chem, 1997).

Structures are written as SMILES. Calls of active or inactive are those of the source. The rule behind the calls is not given here. Where only a bound is given, the exact number is not on record here.

Test [1] concerns the target T1, Estrogen receptor (Homo sapiens, UniProt Q92731+P03372). Nature of the test: Irreversible inhibition of [3H]estradiol binding to estrogen receptor; (-) indicates decrease in estradiol binding sites inactivated by the compound. It counts as protein assay.
The target in test [2] is T1, Estrogen receptor. Nature of the test: Compound concentration required to induce transcriptional activation in MVLN cells equal to 50% of 0.1 nM estradiol response. Format: functional, cell-based.
For test [3], the target named is T1, Estrogen receptor.
Description: Relative affinity constant for cytosolic estrogen receptor
In test [4] the target is T1, Estrogen receptor. The source holds these as a separate data set.
Test [5] deals with T1, Estrogen receptor. Nature of the test: Agonist transcriptional activation in MVLN cells relative to 0.1 nM estradiol. It counts as functional, cell-based.
Test [6] concerns the target T1, Estrogen receptor. In words: Compound concentration required to induce transcriptional activation in MVLN cells comparable to 50% of 0.1 nM estradiol response. It counts as functional, cell-based.

Consider `C[C@]12C[C@H](CCCCBr)[C@@H]3c4ccc(O)cc4CC[C@H]3[C@@H]1CC[C@@H]2O`, for which the Covalent binding result in test [1] was “inactive”. In test [2], this molecule showed a concentration for half-maximal inhibition (IC50) of 3 nM. Moreover, in test [3], the RAC is 11.

In turn, `Cc1ccc(S(=O)(=O)OCCCCCCCCCC[C@H]2C[C@]3(C)[C@@H](O)CC[C@H]3[C@@H]3CCc4cc(O)ccc4[C@@H]23)cc1` showed a half-maximal inhibitory concentration (IC50) in test [2] of 4 nM. This molecule showed an RAC in test [3] of 2.59. This molecule showed a Covalent binding in test [4] below 10.

As to `C[C@]12C[C@H](CCOS(C)(=O)=O)[C@@H]3c4ccc(O)cc4CC[C@H]3[C@@H]1CC[C@@H]2O`, the Covalent binding result in test [1] was “inactive”. In test [5], this molecule showed an Activity of 95%. Moreover, the EC50 in test [6] was 6 nM. The molecule further registered an RAC in test [3] of 8.15.

For the molecule `C[C@]12C[C@H](CCCCOS(C)(=O)=O)[C@@H]3c4ccc(O)cc4CC[C@H]3[C@@H]1CC[C@@H]2O`, the Covalent binding result in test [1] was “inactive”. The IC50 in test [2] was determined as 6 nM. Further, the RAC in test [3] worked out at 36.8.

`C[C@]12C[C@H](CCNC(=O)CBr)[C@@H]3c4ccc(O)cc4CC[C@H]3[C@@H]1CC[C@@H]2O`: in test [1], the Covalent binding result was “inactive”. The Activity in test [5] turned out to be 90%. This molecule also gave an EC50 in test [6] of 110 nM. Moreover, the RAC in test [3] came to 0.38.

`C=CCC[C@H]1C[C@]2(C)[C@@H](O)CC[C@H]2[C@@H]2CCc3cc(O)ccc3[C@@H]12` yielded an Activity in test [5] of 80%. This molecule showed a 50% effective concentration (EC50) in test [6] below 10 nM. Besides, in test [3], the RAC was 38.6.

Turning to `C[C@]12C[C@H](CCCCNC(=O)CBr)[C@@H]3c4ccc(O)cc4CC[C@H]3[C@@H]1CC[C@@H]2O`, the Covalent binding entry in test [1] is “inactive”. Further, the IC50 in test [2] worked out at 320 nM. The molecule also had an RAC in test [3] of 1.64.
